# Laboratory results reported in patent US20230149415A1, “METHODS AND COMPOSITIONS FOR TREATING CANCER” (Engine Biosciences Pte. Ltd., priority 2020, published 2023).
# Legend:
# PKMYT1 = target: T1, PKMYT1 (Homo sapiens, UniProt Q99640); assay: selective binding assay for PKMYT1; settings: in vitro potency
# T1 sequence (Q99640 1-499): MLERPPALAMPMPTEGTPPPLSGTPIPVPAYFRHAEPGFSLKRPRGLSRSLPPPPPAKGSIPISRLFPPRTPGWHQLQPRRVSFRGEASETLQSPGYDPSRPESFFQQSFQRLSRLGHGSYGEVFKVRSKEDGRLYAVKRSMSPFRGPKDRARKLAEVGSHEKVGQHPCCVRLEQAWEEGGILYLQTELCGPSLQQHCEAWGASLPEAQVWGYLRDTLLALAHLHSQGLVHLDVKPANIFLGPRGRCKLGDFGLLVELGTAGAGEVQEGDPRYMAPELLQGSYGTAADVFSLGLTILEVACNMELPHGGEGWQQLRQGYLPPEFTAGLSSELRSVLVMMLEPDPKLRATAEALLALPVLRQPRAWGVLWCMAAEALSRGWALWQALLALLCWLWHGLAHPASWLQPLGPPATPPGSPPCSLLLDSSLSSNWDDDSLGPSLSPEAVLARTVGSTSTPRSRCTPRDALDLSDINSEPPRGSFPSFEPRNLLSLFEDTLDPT
# Wee1 = Wee1 (Homo sapiens, UniProt P30291); assay: selective binding assay for Wee1; settings: in vitro potency
# Wee1, sequence (P30291 whole entry): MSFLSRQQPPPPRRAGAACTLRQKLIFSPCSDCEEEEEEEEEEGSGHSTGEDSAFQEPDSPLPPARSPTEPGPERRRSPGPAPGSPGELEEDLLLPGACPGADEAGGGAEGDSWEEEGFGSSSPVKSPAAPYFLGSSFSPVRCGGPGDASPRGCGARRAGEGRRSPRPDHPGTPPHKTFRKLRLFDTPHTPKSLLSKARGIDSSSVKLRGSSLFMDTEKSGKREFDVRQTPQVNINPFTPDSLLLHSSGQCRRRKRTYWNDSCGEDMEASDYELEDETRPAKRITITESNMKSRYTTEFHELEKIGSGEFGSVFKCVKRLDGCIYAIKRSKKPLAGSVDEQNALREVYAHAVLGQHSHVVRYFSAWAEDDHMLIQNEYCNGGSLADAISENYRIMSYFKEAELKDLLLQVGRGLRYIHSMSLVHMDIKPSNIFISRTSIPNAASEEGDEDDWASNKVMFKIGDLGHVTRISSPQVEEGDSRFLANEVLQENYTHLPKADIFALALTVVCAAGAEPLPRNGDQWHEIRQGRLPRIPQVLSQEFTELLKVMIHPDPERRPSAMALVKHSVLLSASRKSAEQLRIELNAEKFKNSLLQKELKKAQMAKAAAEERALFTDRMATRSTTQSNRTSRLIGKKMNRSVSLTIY
IC50 (PKMYT1) [nM],IC50 (Wee1) [nM],Compound
8.2,–,"CCN(CC)CCOc1ccc(Nc2ncc3cc(-c4c(Cl)cccc4Cl)c(=O)n(C)c3n2)cc1 [PD0166285, 6-(2,6-dichlorophenyl)-2-((4-(2-(diethylamino)ethoxy)phenyl)amino)-8-methylpyrido[2,3-d]pyrimidin-7(8H)-one]"
46,5.3,"Cn1c(=O)c(-c2c(Cl)cccc2Cl)cc2cnc(Nc3ccc(N4CCOCC4)cc3)nc21 [PD173952, 6-(2,6-dichlorophenyl)-8-methyl-2-((4-morpholinophenyl)amino)pyrido[2,3-d]pyrimidin-7(8H)-one]"
